Data taken from patent US20240099964A1, “Methods and Compositions for the Prophylactic Treatment of SARS-CoV-2 virus (COVID-19)” (MedinCell S.A., priority 2020, published 2024).

Assays:
[1] = tested on: SARS-CoV-2; experiment: Ivermectin effect on preventing SARS-CoV-2 infection of pretreated Vero-E6 cells (qRT-PCR); type: cell-based
Procedure: Assessment of Ivermectin effect on preventing SARS-CoV-2 infection Vero-E6 cells were incubated with 0.01, 0.025, 0.05, 0.1, 0.5, 1 or 5 μM concentrations of ivermectin during 2, 6, 16 or 24 hours. Then, cells were infected with SARS-CoV-2 at a multiplicity of infection (MOI) of 0.001, 0.01 or 0.1. After 2 hours of incubation in the presence of the virus, medium with the same concentration of ivermectin was added again. After 24, 48 or 72 hours, viral charge is quantified by qRT-PCR.

[2] = tested on: Vero-E6 cells; experiment: Cytotoxicity in non-infected Vero-E6 cells (cell viability); type: cell-based; details: 0.01-5 μM ivermectin
Procedure: For avoiding false positives, cytotoxicity was evaluated by culturing non-infected cells in the same conditions and with the same concentrations of ivermectin. Cell viability was then determined.

[3] = tested on: Zika virus (ZIKV); details: mice; cited from earlier work
[4] = tested on: DENV; details: single daily oral dose; cited from earlier work
[5] = tested on: SARS-CoV-2 clinical isolate; details: Vero/hSLAM cells, cited from earlier work

Which “preincubation-time dependency of inhibition of viral replication” value ([1]; 72 hours post-infection, preincubation 2, 6, 16 or 24 hours) does the source give for ivermectin here?
The value was “the longer the preincubation time with ivermectin, the higher the inhibition of viral replication”.

And the “viral replication (RT-qPCR)” value ([1]; cells pretreated with ivermectin at 5 μM)?
The value was “highly inhibited”.

What about the cell toxicity [2] of the same substance?
Its cell toxicity is “No cell toxicity”.

And the “effectiveness against Zika virus” value [3]?
The value was “not effective”.

What about the safety [4] of the same substance?
Its safety is “safe”.

What about the “serum levels of viral NS1 protein” value [4] of the same substance?
Its value is “significant reduction”.

And the “viremia or clinical benefit” value [4]?
The value was “no change”.

And the “antiviral action in vitro” value [5]?
Its value is “has antiviral action”.

What about the “time within which a single dose controls viral replication” value ([5]; single dose) of the same substance?
Its value is 24 to 48 h.
